Assay [1] relates to Staphylococcus aureus, MRSA (ATCC 33591). The experiment in a line: Antibacterial MIC assay (microbroth dilution, CLSI). The assay is classed as cell-based. The following applies: read-out: MIC Staphylococcus aureus, MRSA (ATCC 33591). From the text: (§1) All MIC testing of bacteria followed the Clinical and Laboratory Standards Institute (CLSI) guidelines for antimicrobial testing of aerobic bacteria (Methods for Dilution Antimicrobial Susceptibility Tests for Bacteria that Grow Aerobically; Approved Standard—Tenth Edition, M07-A10; Performance Standards for Antimicrobial Susceptibility Testing; Twenty-fifth Informational Supplement, M100-S25).
(§2) Briefly, the microbroth dilution MIC method was used to quantitatively measure the in vitro antibacterial activity of a compound against a given bacterial isolate. The following bacterial strains were evaluated: Staphylococcus aureus, MRSA (ATCC 33591) and Streptococcus pneumoniae (ATCC 49619). Bacteria were grown in cation-adjusted Mueller-Hinton broth, with additions as required per species growth requirements (e.g. 3% lysed horse blood for fastidious organisms such as S. pneumoniae). A direct colony suspension in saline was prepared from colonies on an overnight agar plate to achieve a turbidity equivalent to 0.5 McFarland standard, which was subsequently diluted into the assay plate to achieve 5×10^5 CFU/mL. Assays plates were prepared by 2-fold dilution of compound across the plate and included a positive growth control.
(In general: Broth dilution looks for growth in wells or tubes with falling amounts of substance.)

Assay [2] concerns Streptococcus pneumoniae (ATCC 49619). The assay is described as above. The class given is cell-based.
Text: as §1
as §2, with “The following bacterial strains were evaluated: Staphylococcus aureus, MRSA (ATCC 33591) and Streptococcus pneumoniae (ATCC 49619).” left out

The mark [3] stands for this setting: ATCC49619, read-out: MIC Streptococcus pneumoniae (ATCC 49619).
Setting [4] is: microbroth dilution, cation-adjusted Mueller-Hinton broth, 35° C. for 16-20 hours.
Setting [5] is: ATCC49619, microbroth dilution, 3% lysed horse blood, 35° C. for 16-20 hours, read-out: MIC Streptococcus pneumoniae (ATCC 49619).

Structures are written as SMILES. Converted amounts (≈) assume the structure as drawn. Where a name gives a salt, the structure may show the parent alone. Read-outs that look alike come from different tables or passages of the source. Where only a bound is given, the exact number is not on record here.

In the case of `C=C[C@]1(C)C[C@@H](OC(=O)COc2ccc3c(c2)B(O)OC3C)[C@]2(C)[C@H](C)CC[C@]3(CCC(=O)[C@H]32)[C@@H](C)[C@@H]1O` (stereo partly drawn) [Compound 19, (3aR,4R,5R,7S,8S,9R,9aS,12R)-8-hydroxy-4,7,9,12-tetramethyl-3-oxo-7-vinyldecahydro-4,9a-propanocyclopenta[8]annulen-5-yl 2-((1-hydroxy-3-methyl-1,3-dihydrobenzo[c][1,2]oxaborol-6-yl)oxy)acetate], the minimal inhibitory concentration (MIC) in assay [1] is under 0.25 µg/mL; in assay [2] (setting [3]) it was 0.5 to 2 µg/mL (≈ 0.953 to 3.81 µM).

On to `C=C[C@]1(C)C[C@@H](OC(=O)COc2ccc3c(c2)B(O)OC3(C)C)[C@]2(C)[C@H](C)CC[C@]3(CCC(=O)[C@H]32)[C@@H](C)[C@@H]1O` [Compound 20, (3aR,4R,5R,7S,8S,9R,9aS,12R)-8-hydroxy-4,7,9,12-tetramethyl-3-oxo-7-vinyldecahydro-4,9a-propanocyclopenta[8]annulen-5-yl 2-((1-hydroxy-3,3-dimethyl-1,3-dihydrobenzo[c][1,2]oxaborol-6-yl)oxy)acetate], for which the MIC is under 0.25 µg/mL in assay [1] and 0.5 to 2 µg/mL (≈ 0.929 to 3.71 µM) in assay [2] (setting [3]).

Turning to `C=C[C@]1(C)C[C@@H](OC(=O)COc2ccc3c(c2)B(O)OC3CN)[C@]2(C)[C@H](C)CC[C@]3(CCC(=O)[C@H]32)[C@@H](C)[C@@H]1O.Cl` (stereo partly drawn) [Compound 21, (3aR,4R,5R,7S,8S,9R,9aS,12R)-8-hydroxy-4,7,9,12-tetramethyl-3-oxo-7-vinyldecahydro-4,9a-propanocyclopenta[8]annulen-5-yl 2-((3-(aminomethyl)-1-hydroxy-1,3-dihydrobenzo[c][1,2]oxaborol-6-yl)oxy)acetate Hydrochloride], the results for the MIC in assay [1] (setting [4]) and in assay [2] (setting [3]) were 0.5 to 2 µg/mL and under 0.25 µg/mL, respectively.

Regarding `C=C[C@]1(C)C[C@@H](OC(=O)COc2ccc3c(c2F)B(O)OC3CN)[C@]2(C)[C@H](C)CC[C@]3(CCC(=O)[C@H]32)[C@@H](C)[C@@H]1O.Cl` (stereo partly drawn) [Compound 29, (3aR,4R,5R,7S,8S,9R,9aS,12R)-8-hydroxy-4,7,9,12-tetramethyl-3-oxo-7-vinyldecahydro-4,9a-propanocyclopenta[8]annulen-5-yl 2-((3-(aminomethyl)-7-fluoro-1-hydroxy-1,3-dihydrobenzo[c][1,2]oxaborol-6-yl)oxy)acetate Hydrochloride], the MIC in assay [1] (setting [4]) and in assay [2] (setting [5]) was 0.5 to 2 µg/mL each time.

On to `C=C[C@]1(C)C[C@@H](OC(=O)COc2ccc3c(c2Cl)B(O)OC3CN)[C@]2(C)[C@H](C)CC[C@]3(CCC(=O)[C@H]32)[C@@H](C)[C@@H]1O` (stereo partly drawn) [Compound 31, (3aR,4R,5R,7S,8S,9R,9aS,12R)-8-hydroxy-4,7,9,12-tetramethyl-3-oxo-7-vinyldecahydro-4,9a-propanocyclopenta[8]annulen-5-yl 2-((3-(aminomethyl)-7-chloro-1-hydroxy-1,3-dihydrobenzo[c][1,2]oxaborol-6-yl)oxy)acetate Hydrochloride], for which the MIC in assay [1] and in assay [2] (setting [3]) was 0.5 to 2 µg/mL each time.

`C=C[C@]1(C)C[C@@H](OC(=O)COc2ccc3c(c2)COB3O)[C@]2(C)[C@H](C)CC[C@]3(CCC(=O)[C@H]32)[C@@H](C)[C@@H]1O` [Compound 32, (3aR,4R,5R,7S,8S,9R,9aS,12R)-8-hydroxy-4,7,9,12-tetramethyl-3-oxo-7-vinyldecahydro-4,9a-propanocyclopenta[8]annulen-5-yl 2-((1-hydroxy-1,3-dihydrobenzo[c][1,2]oxaborol-5-yl)oxy)acetate]: the MIC is under 0.25 µg/mL in assay [1] and 0.5 to 2 µg/mL (≈ 0.98 to 3.92 µM) in assay [2] (setting [3]).

Regarding `C=C[C@]1(C)C[C@@H](OC(=O)COc2cc(F)c3c(c2)COB3O)[C@]2(C)[C@H](C)CC[C@]3(CCC(=O)[C@H]32)[C@@H](C)[C@@H]1O` [Compound 33, (3aR,4R,5R,7S,8S,9R,9aS,12R)-8-hydroxy-4,7,9,12-tetramethyl-3-oxo-7-vinyldecahydro-4,9a-propanocyclopenta[8]annulen-5-yl 2-((7-fluoro-1-hydroxy-1,3-dihydrobenzo[c][1,2]oxaborol-5-yl)oxy)acetate], the MIC was under 0.25 µg/mL in assay [1] and 0.5 to 2 µg/mL (≈ 0.946 to 3.78 µM) in assay [2] (setting [3]).

For the compound `C=C[C@]1(C)C[C@@H](OC(=O)COc2cc3c(cc2F)B(O)OC3)[C@]2(C)[C@H](C)CC[C@]3(CCC(=O)[C@H]32)[C@@H](C)[C@@H]1O` [Compound 34, (3aR,4R,5R,7S,8S,9R,9aS,12R)-8-hydroxy-4,7,9,12-tetramethyl-3-oxo-7-vinyldecahydro-4,9a-propanocyclopenta[8]annulen-5-yl 2-((6-fluoro-1-hydroxy-1,3-dihydrobenzo[c][1,2]oxaborol-5-yl)oxy)acetate], the MIC in assay [1] is under 0.25 µg/mL; in assay [2] (setting [3]), 0.5 to 2 µg/mL (≈ 0.946 to 3.78 µM).

Consider `C=C[C@]1(C)C[C@@H](OC(=O)Nc2ccc3c(c2)B(O)OC3)[C@]2(C)[C@H](C)CC[C@]3(CCC(=O)[C@H]32)[C@@H](C)C1=O` [Compound 43, (3aR,4R,5R,7S,9R,9aS,12R)-4,7,9,12-tetramethyl-3,8-dioxo-7-vinyldecahydro-4,9a-propanocyclopenta[8]annulen-5-yl (1-hydroxy-1,3-dihydrobenzo[c][1,2]oxaborol-6-yl)carbamate], for which the MIC in assay [1] (setting [4]) and in assay [2] (setting [5]) was 0.5 to 2 µg/mL (≈ 1.01 to 4.05 µM) throughout.

Take `C=C[C@]1(C)C[C@@H](OC(=O)CNc2ccc3c(c2)B(O)OC3)[C@]2(C)[C@H](C)CC[C@]3(CCC(=O)[C@H]32)[C@@H](C)[C@@H]1O` [Compound 45, (3aR,4R,5R,7S,8S,9R,9aS,12R)-8-hydroxy-4,7,9,12-tetramethyl-3-oxo-7-vinyldecahydro-4,9a-propanocyclopenta[8]annulen-5-yl (1-hydroxy-1,3-dihydrobenzo[c][1,2]oxaborol-6-yl)glycinate]: the MIC is under 0.25 µg/mL in assay [1] and 0.5 to 2 µg/mL (≈ 0.981 to 3.93 µM) in assay [2] (setting [3]).

In the case of `C=C[C@]1(C)C[C@@H](OC(=O)CNc2cc3c(cc2F)COB3O)[C@]2(C)[C@H](C)CC[C@]3(CCC(=O)[C@H]32)[C@@H](C)[C@@H]1O` [Compound 46, (3aR,4R,5R,7S,8S,9R,9aS,12R)-8-hydroxy-4,7,9,12-tetramethyl-3-oxo-7-vinyldecahydro-4,9a-propanocyclopenta[8]annulen-5-yl (5-fluoro-1-hydroxy-1,3-dihydrobenzo[c][1,2]oxaborol-6-yl)glycinate], the values for the MIC in assay [1] and in assay [2] (setting [3]) were under 0.25 µg/mL and 0.5 to 2 µg/mL (≈ 0.948 to 3.79 µM), respectively.

With `C=C[C@]1(C)C[C@@H](OC(=O)CNc2cc3c(cc2CN)COB3O)[C@]2(C)[C@H](C)CC[C@]3(CCC(=O)[C@H]32)[C@@H](C)[C@@H]1O` [Compound 47, (3aR,4R,5R,7S,8S,9R,9aS,12R)-8-hydroxy-4,7,9,12-tetramethyl-3-oxo-7-vinyldecahydro-4,9a-propanocyclopenta[8]annulen-5-yl (5-(aminomethyl)-1-hydroxy-1,3-dihydrobenzo[c][1,2]oxaborol-6-yl)glycinate], the figures for the minimal inhibitory concentration (MIC) in assay [1] (setting [4]) and in assay [2] (setting [5]) were 0.5 to 2 µg/mL (≈ 0.929 to 3.71 µM) and 4 to 32 µg/mL (≈ 7.43 to 59.4 µM), respectively.

Turning to `C=C[C@]1(C)C[C@@H](OC(=O)CNc2ccc3c(c2CN)B(O)OC3)[C@]2(C)[C@H](C)CC[C@]3(CCC(=O)[C@H]32)[C@@H](C)[C@@H]1O` [Compound 49, (3aR,4R,5R,7S,8S,9R,9aS,12R)-8-hydroxy-4,7,9,12-tetramethyl-3-oxo-7-vinyldecahydro-4,9a-propanocyclopenta[8]annulen-5-yl (7-(aminomethyl)-1-hydroxy-1,3-dihydrobenzo[c][1,2]oxaborol-6-yl)glycinate], the MIC in assay [1] and in assay [2] (setting [3]) was 0.5 to 2 µg/mL (≈ 0.929 to 3.71 µM) throughout.

Turning to `C=C[C@]1(C)C[C@@H](OC(=O)CNc2cc(CN)c3c(c2)B(O)OC3)[C@]2(C)[C@H](C)CC[C@]3(CCC(=O)[C@H]32)[C@@H](C)[C@@H]1O` [Compound 50, (3aR,4R,5R,7S,8S,9R,9aS,12R)-8-hydroxy-4,7,9,12-tetramethyl-3-oxo-7-vinyldecahydro-4,9a-propanocyclopenta[8]annulen-5-yl (4-(aminomethyl)-1-hydroxy-1,3-dihydrobenzo[c][1,2]oxaborol-6-yl)glycinate], the MIC in assay [1] is 0.5 to 2 µg/mL (≈ 0.929 to 3.71 µM); in assay [2] (setting [3]), under 0.25 µg/mL.

Consider `C=C[C@]1(C)C[C@@H](OC(=O)CNc2ccc3c(c2)B(O)OC3(C)C)[C@]2(C)[C@H](C)CC[C@]3(CCC(=O)[C@H]32)[C@@H](C)[C@@H]1O` [Compound 51, (3aR,4R,5R,7S,8S,9R,9aS,12R)-8-hydroxy-4,7,9,12-tetramethyl-3-oxo-7-vinyldecahydro-4,9a-propanocyclopenta[8]annulen-5-yl (1-hydroxy-3,3-dimethyl-1,3-dihydrobenzo[c][1,2]oxaborol-6-yl)glycinate], for which the MIC was under 0.25 µg/mL in assay [1] and 0.5 to 2 µg/mL (≈ 0.93 to 3.72 µM) in assay [2] (setting [3]).

What is called MIC is the lowest concentration found to suppress growth.

The values above are taken from US10919916B2, “Boron-containing small molecules” (Bill & Melinda Gates Foundation, priority 2016, dated 2021).
